These results are taken from patent US12471596B2 (priority 2019, dated 2025).

The structures appear in SMILES notation. Bounds are passed on as bounds.

One assay concerns Plasmopara viticola. Kind of assay: Example B: Plasmopara viticola test in grape (greenhouse, preventive). It counts as in vivo. The note with it: 24 h, grape seedlings sprayed one day before inoculation, disease severity rating, read-out: control compared to the untreated check. The procedure:
Example B: Plasmopara viticola Test in Grape
The compound were dissolved in 2% DMSO/Acetone & then mixed with water containing emulsifier to a calibrated spray volume of 50 mL. The spray solutions were poured into spray bottles for further applications.
To test the preventive activity of compounds, 5 week old healthy grape seedlings, cv. Thompson seedless, raised in the greenhouse, were sprayed with the active compound preparation at the stated application rates inside spray cabinets using hallow cone nozzles. One day after treatment, the plants were inoculated with an inoculum suspension (sterile water) containing 6×10^4 Plasmopara viticola inoculum. The inoculated plants were then kept in a greenhouse chamber at 18-21° C. temperature and 95-100% relative humidity for disease expression.
A visual assessment of the performance of the compound was carried out by rating the disease severity (0-100% scale) on treated plants 3, 7 and 10 days after application. Efficacy (% control) of the compound was calculated by comparing the disease rating in the treatment with the one of the untreated control. The compounds were also assessed for their plant compatibility by recording symptoms like necrosis, chlorosis & stunting

The test system of assay [1] is Phytophthora infestans. Kind of assay: microbe, parasite or virus in culture. Format: cell-based. The note with it: in Secale cereale, 168 h, read-out: control compared to the untreated check.
The test system of assay [2] is Phytophthora infestans. The experiment in a line: whole plant or invertebrate. It counts as in vivo, Phytophthora infestans on tomato plants. The note with it: in Solanum lycopersicum, 24 h, read-out: control compared to the untreated check.

As for `O=C(COc1nccnc1C(F)(F)F)N1CCC(c2csc(C3=NOC(c4c(F)cccc4F)C3)n2)CC1` (stereo not shown) [Compound 23, 1-(4-(2-(5-(2,6-difluorophenyl)-4,5-dihydroisoxazol-3-yl)thiazol-4-yl)piperidin-1-yl)-2-((3-(trifluoromethyl)pyrazin-2-yl)oxy)ethan-1-one], the pest or weed control at 50 ppm in the assay on Plasmopara viticola is at least 70%. Besides, the inhibition of growth at 30 ppm in the assay with Phytophthora infestans [1] is at least 70%.

In the case of `CS(=O)(=O)Oc1cccc(Cl)c1C1CC(c2csc(C3CCN(C(=O)COc4nccnc4Cl)CC3)n2)=NO1` (stereo not shown) [Compound 127, 3-chloro-2-(3-(2-(1-(2-((3-chloropyrazin-2-yl)oxy)acetyl)piperidin-4-yl)thiazol-4-yl)-4,5-dihydroisoxazol-5-yl)phenyl methanesulfonate], the pest or weed control at 50 ppm in the assay on Plasmopara viticola and with Phytophthora infestans [2] was at least 70% throughout.

Consider `N#Cc1ccnc(OCC(=O)N2CCC(c3nc(C4=NOC(c5c(F)cccc5F)C4)cs3)CC2)n1` (stereo not shown) [Compound 116, 2-(2-(4-(4-(5-(2,6-difluorophenyl)-4,5-dihydroisoxazol-3-yl)thiazol-2-yl)piperidin-1-yl)-2-oxoethoxy)pyrimidine-4-carbonitrile], for which the pest or weed control at 50 ppm with Plasmopara viticola and in the assay on Phytophthora infestans [2] was at least 70% each time. The inhibition of growth at 30 ppm with Phytophthora infestans [1] is at least 70%.

For the compound `O=C(COc1nccnc1Cl)N1CCC(c2nc(C3=NOC(c4c(Cl)cc(Cl)cc4Cl)C3)cs2)CC1` (stereo not shown) [Compound 123, 2-((3-chloropyrazin-2-yl)oxy)-1-(4-(4-(5-(2,4,6-trichlorophenyl)-4,5-dihydroisoxazol-3-yl)thiazol-2-yl)piperidin-1-yl)ethan-1-one], the pest or weed control at 50 ppm with Plasmopara viticola and in the assay with Phytophthora infestans [2] was at least 70% throughout.

For the compound `N#Cc1ccnc(OCC(=O)N2CCC(c3nc(C4=NOC(c5c(Cl)cccc5Cl)C4)cs3)CC2)n1` (stereo not shown) [Compound 112, 2-(2-(4-(4-(5-(2,6-dichlorophenyl)-4,5-dihydroisoxazol-3-yl)thiazol-2-yl)piperidin-1-yl)-2-oxoethoxy)pyrimidine-4-carbonitrile], the pest or weed control at 50 ppm in the assay on Plasmopara viticola and in the assay on Phytophthora infestans [2] was at least 70% in each case. For the same compound, in the assay on Phytophthora infestans [1], the inhibition of growth at 30 ppm is at least 70%.

Turning to `O=C(COc1nccnc1C(F)(F)F)N1CCC(c2nc(C3=NOC(c4c(F)cccc4F)C3)sc2Cl)CC1` (stereo not shown) [Compound 22, 1-(4-(5-chloro-2-(5-(2,6-difluorophenyl)-4,5-dihydroisoxazol-3-yl)thiazol-4-yl)piperidin-1-yl)-2-((3-(trifluoromethyl)pyrazin-2-yl)oxy)ethan-1-one], in the assay on Plasmopara viticola, the pest or weed control at 50 ppm was at least 70%.

Consider `O=C(COc1nccnc1C(F)(F)F)N1CCC(c2nc(C3=NOC(c4c(Cl)cc(Cl)cc4Cl)C3)cs2)CC1` (stereo not shown) [Compound 2, 1-(4-(4-(5-(2,4,6-trichlorophenyl)-4,5-dihydroisoxazol-3-yl)thiazol-2-yl)piperidin-1-yl)-2-((3-(trifluoromethyl)pyrazin-2-yl)oxy)ethan-1-one], for which the pest or weed control at 50 ppm in the assay with Plasmopara viticola and in the assay with Phytophthora infestans [2] was at least 70% throughout. The inhibition of growth at 30 ppm with Phytophthora infestans [1] is at least 70%.

`O=C(COc1nccnc1Cl)N1CCC(c2nc(C3=NOC(c4c(F)cccc4F)C3)cs2)CC1` (stereo not shown) [Compound 122, 2-((3-chloropyrazin-2-yl)oxy)-1-(4-(4-(5-(2,6-difluorophenyl)-4,5-dihydroisoxazol-3-yl)thiazol-2-yl)piperidin-1-yl)ethan-1-one]: the pest or weed control at 50 ppm with Plasmopara viticola and in the assay with Phytophthora infestans [2] was at least 70% throughout. Moreover, the inhibition of growth at 30 ppm in the assay with Phytophthora infestans [1] was at least 70%.

Regarding `COc1nc(OC)nc(OCC(=O)N2CCC(c3nc(C4=NOC(c5c(F)cccc5Br)C4)cs3)CC2)n1` (stereo not shown) [Compound 110, 1-(4-(4-(5-(2-bromo-6-fluorophenyl)-4,5-dihydroisoxazol-3-yl)thiazol-2-yl)piperidin-1-yl)-2-((4,6-dimethoxy-1,3,5-triazin-2-yl)oxy)ethan-1-one], the pest or weed control at 50 ppm with Plasmopara viticola and with Phytophthora infestans [2] was at least 70% throughout. Further, the inhibition of growth at 30 ppm in the assay with Phytophthora infestans [1] is at least 70%.

As for `COc1ccnc(OCC(=O)N2CCC(c3nc(C4=NOC(c5c(Cl)cccc5C#N)C4)cs3)CC2)n1` (stereo not shown) [Compound 31, 3-chloro-2-(3-(2-(1-(2-((4-methoxypyrimidin-2-yl)oxy)acetyl)piperidin-4-yl)thiazol-4-yl)-4,5-dihydroisoxazol-5-yl)benzonitrile], the inhibition of growth at 30 ppm with Phytophthora infestans [1] is at least 70%. Moreover, in the assay with Phytophthora infestans [2], the pest or weed control at 50 ppm was at least 70%.

On to `O=C(COc1nccnc1C(F)(F)F)N1CCC(c2nc(C3OCc4c(F)ccc(F)c4CO3)cs2)CC1` [Compound 64, 1-(4-(4-(6,9-difluoro-1,5-dihydrobenzo[e][1,3]dioxepin-3-yl)thiazol-2-yl)piperidin-1-yl)-2-((3-(trifluoromethyl)pyrazin-2-yl)oxy)ethan-1-one], for which the inhibition of growth at 30 ppm in the assay on Phytophthora infestans [1] was at least 70%. In the assay with Phytophthora infestans [2], the pest or weed control at 50 ppm was at least 70%.

As for `N#Cc1cccc(Cl)c1C1CC(c2csc(C3CCN(C(=O)COc4ccc(C(F)(F)F)nn4)CC3)n2)=NO1` (stereo not shown) [Compound 40, 3-chloro-2-(3-(2-(1-(2-((6-(trifluoromethyl)pyridazin-3-yl)oxy)acetyl)piperidin-4-yl)thiazol-4-yl)-4,5-dihydroisoxazol-5-yl)benzonitrile], the inhibition of growth at 30 ppm with Phytophthora infestans [1] is at least 70%. In addition, the pest or weed control at 50 ppm in the assay on Phytophthora infestans [2] is at least 70%.

In the case of `O=C(COc1ccc(C(F)(F)F)nn1)N1CCC(c2nc(C3=NOC(c4c(F)cccc4Cl)C3)cs2)CC1` (stereo not shown) [Compound 39, 1-(4-(4-(5-(2-chloro-6-fluorophenyl)-4,5-dihydroisoxazol-3-yl)thiazol-2-yl)piperidin-1-yl)-2-((6-(trifluoromethyl)pyridazin-3-yl)oxy)ethan-1-one], in the assay on Phytophthora infestans [1], the inhibition of growth at 30 ppm was at least 70%. Further, in the assay on Phytophthora infestans [2], the pest or weed control at 50 ppm is at least 70%.

Regarding `O=C(COc1cc(C(F)(F)F)ncn1)N1CCC(c2nc(C3=NOC(c4c(Cl)cccc4Cl)C3)cs2)CC1` (stereo not shown) [Compound 14, 1-(4-(4-(5-(2,6-dichlorophenyl)-4,5-dihydroisoxazol-3-yl)thiazol-2-yl)piperidin-1-yl)-2-((6-(trifluoromethyl)pyrimidin-4-yl)oxy)ethan-1-one], in the assay with Phytophthora infestans [1], the inhibition of growth at 30 ppm is at least 70%. Further, in the assay with Phytophthora infestans [2], the pest or weed control at 50 ppm was at least 70%.

For `COc1ccnc(OCC(=O)N2CCC(c3nc(C4=NOC(c5c(F)cccc5Cl)C4)cs3)CC2)n1` (stereo not shown) [Compound 34, 1-(4-(4-(5-(2-chloro-6-fluorophenyl)-4,5-dihydroisoxazol-3-yl)thiazol-2-yl)piperidin-1-yl)-2-((4-methoxypyrimidin-2-yl)oxy)ethan-1-one], in the assay on Phytophthora infestans [1], the inhibition of growth at 30 ppm was at least 70%. Further, the pest or weed control at 50 ppm with Phytophthora infestans [2] is at least 70%.

Take `O=C(COc1nccnc1C(F)(F)F)N1CCC(c2csc(C3=NOC(c4c(Cl)cccc4Cl)C3)n2)CC1` (stereo not shown) [Compound 13, 1-(4-(2-(5-(2,6-dichlorophenyl)-4,5-dihydroisoxazol-3-yl)thiazol-4-yl)piperidin-1-yl)-2-((3-(trifluoromethyl)pyrazin-2-yl)oxy)ethan-1-one]: the inhibition of growth at 30 ppm with Phytophthora infestans [1] is at least 70%. For the same compound, the pest or weed control at 50 ppm in the assay with Phytophthora infestans [2] is at least 70%.

`O=C(COc1ccnc(C(F)(F)F)n1)N1CCC(c2nc(C3=NOC(c4c(Cl)cccc4C(F)(F)F)C3)cs2)CC1` (stereo not shown) [Compound 18, 1-(4-(4-(5-(2-chloro-6-(trifluoromethyl)phenyl)-4,5-dihydroisoxazol-3-yl)thiazol-2-yl)piperidin-1-yl)-2-((2-(trifluoromethyl)pyrimidin-4-yl)oxy)ethan-1-one]: in the assay on Phytophthora infestans [1], the inhibition of growth at 30 ppm was at least 70%. Besides, the pest or weed control at 50 ppm in the assay on Phytophthora infestans [2] was at least 70%.

Regarding `O=C(COc1ccnc(C(F)(F)F)n1)N1CCC(c2nc(C3=NOC(c4c(Cl)cccc4Cl)C3)cs2)CC1` (stereo not shown) [Compound 16, 1-(4-(4-(5-(2,6-dichlorophenyl)-4,5-dihydroisoxazol-3-yl)thiazol-2-yl)piperidin-1-yl)-2-((2-(trifluoromethyl)pyrimidin-4-yl)oxy)ethan-1-one], in the assay with Phytophthora infestans [1], the inhibition of growth at 30 ppm was at least 70%. In addition, the pest or weed control at 50 ppm with Phytophthora infestans [2] was at least 70%.

Take `O=C(COc1nccnc1Cl)N1CCC(c2nc(C3=NOC(c4c(F)cccc4Cl)C3)cs2)CC1` (stereo not shown) [Compound 125, 1-(4-(4-(5-(2-chloro-6-fluorophenyl)-4,5-dihydroisoxazol-3-yl)thiazol-2-yl)piperidin-1-yl)-2-((3-chloropyrazin-2-yl)oxy)ethan-1-one]: the pest or weed control at 50 ppm in the assay with Plasmopara viticola and in the assay with Phytophthora infestans [2] was at least 70% throughout.

As to `COc1nccnc1OCC(=O)N1CCC(c2nc(C3=NOC(c4c(F)cccc4Br)C3)cs2)CC1` (stereo not shown) [Compound 28, 1-(4-(4-(5-(2-bromo-6-fluorophenyl)-4,5-dihydroisoxazol-3-yl)thiazol-2-yl)piperidin-1-yl)-2-((3-methoxypyrazin-2-yl)oxy)ethan-1-one], the inhibition of growth at 30 ppm in the assay on Phytophthora infestans [1] is at least 70%. Further, the pest or weed control at 50 ppm in the assay with Phytophthora infestans [2] was at least 70%.

Take `O=C(COc1nccnc1C(F)(F)F)N1CCC(c2nc(C3=NOC(c4c(Cl)cccc4C(F)(F)F)C3)cs2)CC1` (stereo not shown) [Compound 4, 1-(4-(4-(5-(2-chloro-6-(trifluoromethyl)phenyl)-4,5-dihydroisoxazol-3-yl)thiazol-2-yl)piperidin-1-yl)-2-((3-(trifluoromethyl)pyrazin-2-yl)oxy)ethan-1-one]: the inhibition of growth at 30 ppm in the assay with Phytophthora infestans [1] was at least 70%. Moreover, in the assay on Phytophthora infestans [2], the pest or weed control at 50 ppm is at least 70%.
